Holding throughout (type): cell-based
For one assay, the system named is IL-1β. The assay is described as follows: Inhibition of IL-1β secretion in LPS stimulated peripheral blood mononuclear cells. The following applies: PBMC; LPS stimulated human peripheral blood mononuclear cells, 18 hours, ELISA; read-out: The median inhibition concentration (IC50, nM) of IL-1β. Here is the method: (§1) To study the effect of the compound of the present invention in vitro the inhibition of the IL-1β and TNF-α secretion was measured using the following procedure:
(§2) Cytokine production was measured in the media from lipopolysaccharide (LPS) stimulated peripheral blood mononuclear cells. The mononuclear cells were isolated from human. peripheral blood by Lymphoprep® (Nycomed, Norway) fractionation and suspended in RPMI 1640 (growth medium) with foetal calv serum (FCS, 2%), at a concentration of 5×10^5 cells/ml. The cells were incubated in 24-well tissue culture plates in 1 ml aliquots. Test compounds were dissolved in dimethylsulfoxide (DMSO, 10 mM) and were diluted with the medium. Compounds were added to the cells for 30 minutes, then LPS ([…] final concentration) was added. The plates were incubated for 18 hours, and the concentration of IL-1β and TNF-α in the medium was determined by enzyme-linked immunosorbent assays. The median inhibitory concentrations (IC50) of the compounds were calculated.

The next assay relates to TNF-α. Description: Inhibition of TNF-α secretion in LPS stimulated peripheral blood mononuclear cells. The conditions noted are these: PBMC; LPS stimulated human peripheral blood mononuclear cells, 18 hours, ELISA; read-out: The median inhibition concentration (IC50, nM) of TNF-α. As to the method: as §1, §2
In general terms: An ELISA detects its analyte on a solid surface through an enzyme-linked reagent.

A further assay concerns PMN-superoxide. Description: Inhibition of PMN superoxide secretion (ferricytochrome C reduction). The following applies: human PMN granulocytes primed with TNF-α, stimulated with fMLP; read-out: The median inhibition concentration (IC50, nM) of PMN-superoxide. As to the method:
The compounds of the present invention also show similar activities in the ability to inhibit PMN (polymorphonuclear) superoxide secretion which is also indicative of potentially useful anti-inflammatory drugs The compounds were tested using the following procedure:
Human polymorphonuclear (PMN) granulocytes were Isolated from human blood by dextran sedimentation, Lymphoprep® fractionation and hypotonic lysis of contaminating erythrocytes.
Superoxide anion generation was measured as the superoxide dismutase inhibitable reduction of ferricytochrome C (Madhu, S. B. et al, Inflammation, 16 241, (1992)). The cells were suspended in Hanks' balanced salt solution, and incubated for 10 minutes at 37° C. with test compounds. The cells were primed by the addition of TNF-α (3 ng/ml final concentration) for 10 minutes, and then ferricytochrome C, (final concentration 750 μg/ml), bovine serum albumin (BSA, final concentration 1 mg/ml) and formyl-methionyl-leucyl-phenylalanine (fMLP, final concentration 10^−7 M) were added for 3 minutes. The cells were chilled on ice, and were spun down. The optical densities in the cell-free supernatant was measured in a spectrophotometer. The median Inhibitory concentration (IC50) of the compounds was calculated.

As to `Cc1ccccc1C(=O)c1ccc(Nc2ccccc2NC(=O)NC2CCCCC2)cc1Cl` [Compound 101, 1-Cyclohexyl-3-[2-[3-chloro-4-(2-methylbenzoyl)-phenylamino]phenyl]urea], the figures for the IC50 in the assay with IL-1β, in the assay on TNF-α and in the assay on PMN-superoxide were 13 nM, 5 nM and 4 nM, respectively.
`CCNC(=O)Nc1ccccc1Nc1ccc(C(=O)c2ccccc2C)c(Cl)c1` [Compound 102, 1-Ethyl-3-[2-[3-chloro-4-(2-methylbenzoyl)-phenylamino]phenyl]urea]: the IC50 in the assay on IL-1β amounted to 22 nM; with TNF-α it was 2.2 nM; in the assay with PMN-superoxide it was 13 nM.
In the same order, the values of `CCNC(=O)Nc1cc(F)ccc1Nc1ccc(C(=O)c2ccccc2C)c(Cl)c1` [Compound 114, 1-Ethyl-3-[2-[3-chloro-4-(2-methylbenzoyl)-phenylamino]-5-fluoro-phenyl]urea] are 7.9 nM, 3.2 nM and 4 nM.
In the case of `CCNC(=O)Nc1ccccc1Nc1ccc(C(=O)c2ccccc2)cc1` [ref. b), 1-Ethyl-3-[2-(4-benzoyl-phenylamino)phenyl]urea, reference compound], the IC50 is above 1000 nM in the assay on IL-1β, 631 nM with TNF-α and 316 nM in the assay with PMN-superoxide.
